# Results taken from PMC8536124 (International Journal of Molecular Sciences, 2021).
# Columns and labels:
# [1] = system: chorioallantoic membrane; conditions: in vivo
# From the text: In this assay, the irritation potential may range from 0 to 21, with 0 being non-irritant and 21 being the most irritant. […] The irritation score was established according to Luepke scale: 0–0.9 indicates non-irritant, 1–4.9 indicates weakly irritant, 5–8.9 indicates moderately irritant, while 9–21 means strongly irritant (Table 6) [88, 89].
# The in vivo Hen’s Egg Chorioallantoic Membrane Test (HET-CAM) assay determines a potential irritant effect on the vascular plexus of the chorioallantoic membrane [94]. The HET-CAM method was carried out following ICCVAM recommendations published in November 2016 in Appendix G and adapted to our conditions [88, 95, 96]. Thus, a volume of 300 µL of control or test solution was applied and the modifications produced at the CAM level were monitored by means of stereomicroscopy (Discovery 8 Stereomicroscope, Zeiss), registering significant images (Axio CAM 105 color, Zeiss), before application after 5 min of contact with the samples. All images were processed using Zeiss ZEN software, Gimp 2.8, and ImageJ software.
# Negative control was represented by distilled water and solvent control DMSO 0.5%, and positive control by sodium lauryl sulphate (SLS) 0.5% in distillate water. The test substances were tested in concentrations of 1 µM.
# Finally, the following reactions were: hemorrhage—H (blood vessel bleeding), vascular lysis—L (disintegration of blood vessels), coagulation—C (intra- or extra-vascular protein denaturizing). A variety of analysis methods may be used to assess irritancy potential of test substances. One analysis method that has been used extensively is an irritation score (IS). The formula used to generate an IS value is:(1) IS=5×301−Sec H/300+7×300−Sec L/300+9×301−Sec C/300 where: H = hemorrhage; L = vessel lysis; C = coagulation; hemorrhage time (Sec H) = onset of hemorrhage reactions on CAM (in seconds); lysis time (Sec L) = onset of vessel lysis on CAM (in seconds); coagulation time (Sec C) = onset of coagulation formation on CAM (in seconds). Means values are obtained. […] The IS values range on a scale between 0 and 21.
# [2] = system: A549/ATCC; design: method as in earlier work; conditions: cited from earlier work
# [3] = system: EKVX; design: method as in earlier work; conditions: cited from earlier work
# [4] = system: HOP-62; design: method as in earlier work; conditions: cited from earlier work
# [5] = system: HOP-92; design: method as in earlier work; conditions: cited from earlier work
# [6] = system: NCI-H226; design: method as in earlier work; conditions: cited from earlier work
# [7] = system: NCI-H23; design: method as in earlier work; conditions: cited from earlier work
# [8] = system: NCI-H460; design: method as in earlier work; conditions: cited from earlier work
# [9] = system: NCI-H522; design: method as in earlier work; conditions: cited from earlier work
# [10] = system: NSC lung cancer; design: method as in earlier work; conditions: NSC lung cancer subpanel; read-out: GI50 MG_MID; cited from earlier work
# [11] = system: COLO 205; design: method as in earlier work; conditions: cited from earlier work
# [12] = system: HCC-2998; design: method as in earlier work; conditions: cited from earlier work
# [13] = system: HCT-116; design: method as in earlier work; conditions: cited from earlier work
# [14] = system: HCT-15; design: method as in earlier work; conditions: cited from earlier work
# [15] = system: HT29; design: method as in earlier work; conditions: cited from earlier work
# [16] = system: KM12; design: method as in earlier work; conditions: cited from earlier work
# [17] = system: SW-620; design: method as in earlier work; conditions: cited from earlier work
# [18] = system: SF-268; design: method as in earlier work; conditions: cited from earlier work
# [19] = system: SF-295; design: method as in earlier work; conditions: cited from earlier work
# [20] = system: SF-539; design: method as in earlier work; conditions: cited from earlier work
# [21] = system: SNB-19; design: method as in earlier work; conditions: cited from earlier work
# [22] = system: SNB-75; design: method as in earlier work; conditions: cited from earlier work
# [23] = system: U251; design: method as in earlier work; conditions: cited from earlier work
# [24] = system: CNS cancer; design: method as in earlier work; conditions: CNS cancer subpanel; read-out: GI50 MG_MID; cited from earlier work
# [25] = system: LOX IMVI; design: method as in earlier work; conditions: cited from earlier work
# [26] = system: MALME-3M; design: method as in earlier work; conditions: cited from earlier work
# [27] = system: M14; design: method as in earlier work; conditions: cited from earlier work
# [28] = system: MDA-MB-435; design: method as in earlier work; conditions: cited from earlier work
# [29] = system: SK-MEL-2; design: method as in earlier work; conditions: cited from earlier work
# [30] = system: SK-MEL-28; design: method as in earlier work; conditions: cited from earlier work
# [31] = system: SK-MEL-5; design: method as in earlier work; conditions: cited from earlier work
# [32] = system: UACC-257; design: method as in earlier work; conditions: cited from earlier work
# [33] = system: UACC-62; design: method as in earlier work; conditions: cited from earlier work
# [34] = system: Melanoma; design: method as in earlier work; conditions: Melanoma subpanel; read-out: GI50 MG_MID; cited from earlier work
# [35] = system: IGROV1; design: method as in earlier work; conditions: cited from earlier work
# [36] = system: OVCAR-3; design: method as in earlier work; conditions: cited from earlier work
# [37] = system: OVCAR-4; design: method as in earlier work; conditions: cited from earlier work
# [38] = system: OVCAR-5; design: method as in earlier work; conditions: cited from earlier work
# [39] = system: OVCAR-8; design: method as in earlier work; conditions: cited from earlier work
# [40] = system: NCI/ADR-RES; design: method as in earlier work; conditions: cited from earlier work
# [41] = system: SK-OV-3; design: method as in earlier work; conditions: cited from earlier work
# [42] = system: Ovarian cancer; design: method as in earlier work; conditions: Ovarian cancer subpanel; read-out: GI50 MG_MID; cited from earlier work
# [43] = system: 786-0; design: method as in earlier work; conditions: cited from earlier work
# [44] = system: A498; design: method as in earlier work; conditions: cited from earlier work
# [45] = system: ACHN; design: method as in earlier work; conditions: cited from earlier work
# [46] = system: CAKI-1; design: method as in earlier work; conditions: cited from earlier work
# [47] = system: RXF 393; design: method as in earlier work; conditions: cited from earlier work
# [48] = system: SN12C; design: method as in earlier work; conditions: cited from earlier work
# [49] = system: UO-31; design: method as in earlier work; conditions: cited from earlier work
# [50] = system: Renal Cancer; design: method as in earlier work; conditions: Renal cancer subpanel; read-out: GI50 MG_MID; cited from earlier work
# [51] = system: PC-3; design: method as in earlier work; conditions: cited from earlier work
# [52] = system: DU-145; design: method as in earlier work; conditions: cited from earlier work
# [53] = system: Prostate cancer; design: method as in earlier work; conditions: Prostate cancer subpanel; read-out: GI50 MG_MID; cited from earlier work
# [54] = system: MCF7; design: method as in earlier work; conditions: cited from earlier work
# [55] = system: MDA-MB-31/ATCC; design: method as in earlier work; conditions: cited from earlier work
# [56] = system: HS 578T; design: method as in earlier work; conditions: cited from earlier work
# [57] = system: BT-549; design: method as in earlier work; conditions: cited from earlier work
# [58] = system: T-47D; design: method as in earlier work; conditions: cited from earlier work
# [59] = system: MDA-MB-468; design: method as in earlier work; conditions: cited from earlier work
# [60] = system: Breast cancer; design: method as in earlier work; conditions: Breast cancer subpanel; read-out: GI50 MG_MID; cited from earlier work
# [61] = system: NCI-60 cancer cell line panel; design: method as in earlier work; conditions: mean graph midpoint, full panel; read-out: GI50 MG_MID60; cited from earlier work
# [62] = system: Colon Cancer; design: method as in earlier work; conditions: Colon Cancer subpanel; read-out: GI50 MG_MID; cited from earlier work
# [63] = system: TK-10; design: method as in earlier work; conditions: cited from earlier work
smiles,measurement,setting,value
"CCCCCCCCCCCCOS(=O)(=O)[O-].[Na+] [SLS 0.5%, sodium laurylsulphate]",Type of Effect,[1],Strong irritant
"COc1cccc2c1C(=O)c1c(O)c3c(c(O)c1C2=O)C[C@@](O)(C(=O)CO)C[C@@H]3O[C@H]1C[C@H](N)[C@H](O)[C@H](C)O1 [DRB, doxorubicin]",GI50,[2],60 nM
same,GI50,[3],410 nM
same,GI50,[4],70 nM
same,GI50,[5],100 nM
same,GI50,[6],50 nM
same,GI50,[7],150 nM
same,GI50,[8],20 nM
same,GI50,[9],30 nM
same,GI50,[10],110 nM
same,GI50,[11],180 nM
same,GI50,[12],260 nM
same,GI50,[13],80 nM
same,GI50,[14],6460 nM
same,GI50,[15],120 nM
same,GI50,[16],270 nM
same,GI50,[17],90 nM
same,GI50,[18],100 nM
same,GI50,[19],100 nM
same,GI50,[20],120 nM
same,GI50,[21],40 nM
same,GI50,[22],70 nM
same,GI50,[23],40 nM
same,GI50,[24],80 nM
same,GI50,[25],70 nM
same,GI50,[26],120 nM
same,GI50,[27],180 nM
same,GI50,[28],250 nM
same,GI50,[29],170 nM
same,GI50,[30],210 nM
same,GI50,[31],80 nM
same,GI50,[32],140 nM
same,GI50,[33],120 nM
same,GI50,[34],150 nM
same,GI50,[35],170 nM
same,GI50,[36],390 nM
same,GI50,[37],370 nM
same,GI50,[38],410 nM
same,GI50,[39],100 nM
same,GI50,[40],7160 nM
same,GI50,[41],220 nM
same,GI50,[42],1260 nM
same,GI50,[43],130 nM
same,GI50,[44],100 nM
same,GI50,[45],80 nM
same,GI50,[46],950 nM
same,GI50,[47],100 nM
same,GI50,[48],70 nM
same,GI50,[49],490 nM
same,GI50,[50],270 nM
same,GI50,[51],320 nM
same,GI50,[52],110 nM
same,GI50,[53],210 nM
same,GI50,[54],30 nM
same,GI50,[55],510 nM
same,GI50,[56],330 nM
same,GI50,[57],230 nM
same,GI50,[58],60 nM
same,GI50,[59],50 nM
same,GI50,[60],190 nM
same,GI50,[61],380 nM
"O=c1[nH]cc(F)c(=O)[nH]1 [Compound 5-FU, 5-fluorouracil]",GI50,[2],180 nM
same,GI50,[4],390 nM
same,GI50,[5],77900 nM
same,GI50,[6],54700 nM
same,GI50,[7],330 nM
same,GI50,[8],50 nM
same,GI50,[9],7270 nM
same,GI50,[10],20100 nM
same,GI50,[11],150 nM
same,GI50,[12],50 nM
same,GI50,[13],220 nM
same,GI50,[14],110 nM
same,GI50,[15],170 nM
same,GI50,[16],210 nM
same,GI50,[17],920 nM
same,GI50,[62],260 nM
same,GI50,[18],1620 nM
same,GI50,[20],60 nM
same,GI50,[21],3810 nM
same,GI50,[22],78700 nM
same,GI50,[23],920 nM
same,GI50,[24],17000 nM
same,GI50,[25],240 nM
same,GI50,[26],50 nM
same,GI50,[27],980 nM
same,GI50,[28],70 nM
same,GI50,[29],56700 nM
same,GI50,[30],1030 nM
same,GI50,[31],460 nM
same,GI50,[32],3550 nM
same,GI50,[33],520 nM
same,GI50,[34],7070 nM
same,GI50,[35],1220 nM
same,GI50,[36],10 nM
same,GI50,[37],4430 nM
same,GI50,[38],10900 nM
same,GI50,[39],1740 nM
same,GI50,[40],310 nM
same,GI50,[41],21800 nM
same,GI50,[42],5770 nM
same,GI50,[43],720 nM
same,GI50,[44],350 nM
same,GI50,[45],270 nM
same,GI50,[46],70 nM
same,GI50,[47],2610 nM
same,GI50,[48],490 nM
same,GI50,[63],1120 nM
same,GI50,[49],1420 nM
same,GI50,[50],880 nM
same,GI50,[51],2360 nM
same,GI50,[52],360 nM
same,GI50,[53],1360 nM
same,GI50,[54],70 nM
same,GI50,[55],6600 nM
same,GI50,[56],9770 nM
same,GI50,[57],10600 nM
same,GI50,[58],8120 nM
same,GI50,[60],7030 nM
same,GI50,[61],6970 nM
